This note sets out measurements from patent US8530653B2, “Enzyme inhibiting compounds” (Chelsea Therapeutics, Inc., priority 2009, dated 2013).

The assay addresses T1, human dihydrofolate reductase (DHFR) (Homo sapiens, UniProt P00374).
T1 sequence (P00374 1-187): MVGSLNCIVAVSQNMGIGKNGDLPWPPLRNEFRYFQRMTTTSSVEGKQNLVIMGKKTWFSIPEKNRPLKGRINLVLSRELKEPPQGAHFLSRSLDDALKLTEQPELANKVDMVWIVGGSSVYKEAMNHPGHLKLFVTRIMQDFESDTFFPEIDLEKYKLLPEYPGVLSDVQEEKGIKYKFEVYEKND
As to the kind of experiment: Inhibition of human DHFR (spectrophotometric, decrease in absorbance at 340 nm). Type of assay: biochemical. Conditions: recombinant human DHFR 0.2 μg/mL, 0.1 mM dihydrofolate, 0.1 mM NADPH, pH 7.3, 37° C., 1% DMSO, triplicate. The protocol: The activity of multiple compounds as inhibitors of human dihydrofolate reductase (DHFR) was evaluated. The dry test compounds were dissolved in 100% DMSO at a concentration of 10 mM. For the test assays, the compounds were serially diluted in 100% DMSO and added to the assays so that the final concentration of DMSO in the assays was 1%.
The final assay conditions for the human DHFR assays were: […] KPO4 (pH7.3), 250 mM KCl, 0.1 mM dihydrofolate, 0.1 mM NADPH, 1% DMSO, and 0.2 μg/mL recombinant human DHFR. The final volume of the assay was 800 μL in a semi-micro cuvet.
A decrease in absorbance at 340 nm was monitored for three minutes in a Cary spectrophotometer at 37° C. The concentrations used for each compound across a range of 10,000 to 0.08 nM, depending on the expected level of activity. The assays were done in triplicate for each compound. […] A minimum of seven concentrations were used to generate a curve, and IC50 values were calculated using the Standard Curve Analysis of Sigma Plot Enzyme Kinetics software.
Regarding `C=C(CC(NC(=O)c1ccc(CCc2ccc3nc(N)nc(N)c3c2)cc1)C(=O)O)C(=O)O` (stereo not drawn) [Comparative, 2-{4-[2-(2,4-diamino-quinazolin-6-yl)-ethyl]-benzoylamino}-4-methylidene-pentanedioic acid, reference compound], the IC50 (in general, the concentration at which inhibition is half-maximal) came out at 5.4 nM.
`Nc1nc(N)c2cc(CCc3ccc(C(=O)NCC[C@@H](O)C[C@@H](O)CC(=O)O)cc3)ccc2n1` [Inventive 1]: the IC50 stood at 8.65 nM.
As for `Nc1nc(N)c2cc(CCc3ccc(CNCC[C@@H](O)C[C@@H](O)CC(=O)O)cc3)ccc2n1` [Inventive 2], the IC50 was determined as 670 nM.
